One data set has as its system HIV Tar RNA. Conditions: original target; read-out: IC50 Original Target(s): HIV Tar RNA; cited from earlier work.
In another data set the target is chymotrypsin (Bos taurus, UniProt P00766). Put plainly: chymotrypsin inhibition enzyme assay. It counts as biochemical.
For data set [1], the target named is T1, AmpC β-lactamase (Escherichia coli, UniProt P00811). Nature of the data set: biochemical.
The target of data set [2] is T1, AmpC β-lactamase. The settings on record: for ↑ IC50 vs. 10x β-lactamase: 10-fold increase in β-lactamase; for ↑ IC50 vs. 10x Enzyme: β-lactamase 10 nM vs 1 nM.
Data set [3] is described as follows: Dynamic light scattering (DLS). It counts as physicochemical.
The target of data set [4] is phosphoinositide 3-kinase. The settings on record: original target; read-out: IC50 Original Target(s): PI3K; cited from earlier work.
In a further data set the target is β-galactosidase (Escherichia coli, UniProt P00722). Nature of the data set: biochemical. The settings on record: for ↑ IC50 in the presence of BSA, against β-galactosidase: 0.1 mg/mL BSA.
A further data set has as its target integrase. Conditions: original target; read-out: IC50 Original Target(s): integrase; cited from earlier work.
For the next data set, the system named is thymidylate synthase. The settings on record: original target; read-out: IC50 Original Target(s): TS; cited from earlier work.
Another data set concerns kinesin. Conditions: original target; read-out: IC50 Original Target(s): kinesin; cited from earlier work.
Data set [5] deals with model enzymes (β-lactamase, chymotrypsin, DHFR, β-galactosidase). It is filed as biochemical.
Data set [6] is classed as physicochemical. The settings on record: 625 μM in 20 mM Tris, pH 7.2.
The test system of data set [7] is neuronal nitric oxide synthase. The settings on record: original target; read-out: IC50 Original Target(s): nNOS; cited from earlier work.
For data set [8], the system named is endothelial nitric oxide synthase. The settings on record: original target; read-out: IC50 Original Target(s): eNOS; cited from earlier work.
Another data set has as its target insulin receptor (Homo sapiens, UniProt P06213). Conditions: original target; footnote b: Kd; read-out: Kd Original Target(s): insulin receptor; cited from earlier work.
Data set [9] addresses triosephosphate isomerase (Plasmodium falciparum, UniProt Q07412). The settings on record: read-out: IC50 Original Target(s): TIM; cited from earlier work.
For the next data set, the system named is prion. Conditions: original target; read-out: IC50 Original Target(s): prion; cited from earlier work.
Setting [10] is: Table 6, read-out: IC50 vs. chymo.
Setting [11] is: Table 6, incubation with β-lactamase, 5 min.
[12] abbreviates: Table 4, 50 mM KPi, at the concentration under DLS conc.
[13] abbreviates: Table 2, 5 min preincubation of inhibitor and enzyme vs none.

Read-outs that look alike come from different tables or passages of the source.

T1 sequence (P00811 20-377 limits assumed): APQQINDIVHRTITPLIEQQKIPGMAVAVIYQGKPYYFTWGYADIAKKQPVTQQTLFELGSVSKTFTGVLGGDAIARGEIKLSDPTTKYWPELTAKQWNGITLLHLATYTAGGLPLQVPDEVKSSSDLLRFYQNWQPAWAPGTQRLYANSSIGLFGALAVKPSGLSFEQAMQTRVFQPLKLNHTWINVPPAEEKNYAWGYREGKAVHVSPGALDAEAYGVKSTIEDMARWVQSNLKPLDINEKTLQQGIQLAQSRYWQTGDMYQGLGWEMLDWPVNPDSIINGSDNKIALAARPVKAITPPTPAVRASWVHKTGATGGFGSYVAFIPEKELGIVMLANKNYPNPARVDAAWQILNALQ
Chain of β-galactosidase (P00722 2-1024 limits assumed): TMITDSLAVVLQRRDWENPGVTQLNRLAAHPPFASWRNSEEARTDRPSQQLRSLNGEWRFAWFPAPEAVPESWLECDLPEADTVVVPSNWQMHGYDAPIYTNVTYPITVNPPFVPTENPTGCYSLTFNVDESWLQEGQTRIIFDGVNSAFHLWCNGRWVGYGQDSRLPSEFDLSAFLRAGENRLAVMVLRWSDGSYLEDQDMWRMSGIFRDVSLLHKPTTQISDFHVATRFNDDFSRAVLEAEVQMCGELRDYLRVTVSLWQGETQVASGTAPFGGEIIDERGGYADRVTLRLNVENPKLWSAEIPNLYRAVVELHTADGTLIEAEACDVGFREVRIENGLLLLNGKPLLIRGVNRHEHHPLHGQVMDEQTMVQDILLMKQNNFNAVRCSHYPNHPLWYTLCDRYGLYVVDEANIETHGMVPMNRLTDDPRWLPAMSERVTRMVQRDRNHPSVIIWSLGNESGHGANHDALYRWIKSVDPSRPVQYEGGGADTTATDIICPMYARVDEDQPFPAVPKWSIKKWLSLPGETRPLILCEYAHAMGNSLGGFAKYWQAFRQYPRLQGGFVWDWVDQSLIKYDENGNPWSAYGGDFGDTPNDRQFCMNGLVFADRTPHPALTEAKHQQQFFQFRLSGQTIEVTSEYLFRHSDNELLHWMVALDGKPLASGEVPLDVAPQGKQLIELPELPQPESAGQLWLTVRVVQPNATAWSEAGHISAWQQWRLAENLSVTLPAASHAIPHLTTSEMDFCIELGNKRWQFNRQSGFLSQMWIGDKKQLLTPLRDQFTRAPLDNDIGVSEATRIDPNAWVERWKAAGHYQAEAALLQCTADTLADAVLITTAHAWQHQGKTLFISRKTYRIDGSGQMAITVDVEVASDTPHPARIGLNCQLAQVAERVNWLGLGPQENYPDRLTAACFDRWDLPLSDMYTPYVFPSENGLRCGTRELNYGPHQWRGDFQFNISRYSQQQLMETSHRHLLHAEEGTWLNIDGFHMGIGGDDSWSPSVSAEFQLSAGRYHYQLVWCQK
Chain of triosephosphate isomerase (Q07412 whole entry): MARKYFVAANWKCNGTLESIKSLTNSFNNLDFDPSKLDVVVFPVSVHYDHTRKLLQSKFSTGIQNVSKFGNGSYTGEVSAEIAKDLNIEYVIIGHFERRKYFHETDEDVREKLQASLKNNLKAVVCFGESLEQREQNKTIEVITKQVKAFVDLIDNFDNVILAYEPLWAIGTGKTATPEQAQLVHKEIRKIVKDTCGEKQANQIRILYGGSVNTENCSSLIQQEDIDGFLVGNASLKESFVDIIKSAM
Chain of insulin receptor (P06213 28-1382, species assumed): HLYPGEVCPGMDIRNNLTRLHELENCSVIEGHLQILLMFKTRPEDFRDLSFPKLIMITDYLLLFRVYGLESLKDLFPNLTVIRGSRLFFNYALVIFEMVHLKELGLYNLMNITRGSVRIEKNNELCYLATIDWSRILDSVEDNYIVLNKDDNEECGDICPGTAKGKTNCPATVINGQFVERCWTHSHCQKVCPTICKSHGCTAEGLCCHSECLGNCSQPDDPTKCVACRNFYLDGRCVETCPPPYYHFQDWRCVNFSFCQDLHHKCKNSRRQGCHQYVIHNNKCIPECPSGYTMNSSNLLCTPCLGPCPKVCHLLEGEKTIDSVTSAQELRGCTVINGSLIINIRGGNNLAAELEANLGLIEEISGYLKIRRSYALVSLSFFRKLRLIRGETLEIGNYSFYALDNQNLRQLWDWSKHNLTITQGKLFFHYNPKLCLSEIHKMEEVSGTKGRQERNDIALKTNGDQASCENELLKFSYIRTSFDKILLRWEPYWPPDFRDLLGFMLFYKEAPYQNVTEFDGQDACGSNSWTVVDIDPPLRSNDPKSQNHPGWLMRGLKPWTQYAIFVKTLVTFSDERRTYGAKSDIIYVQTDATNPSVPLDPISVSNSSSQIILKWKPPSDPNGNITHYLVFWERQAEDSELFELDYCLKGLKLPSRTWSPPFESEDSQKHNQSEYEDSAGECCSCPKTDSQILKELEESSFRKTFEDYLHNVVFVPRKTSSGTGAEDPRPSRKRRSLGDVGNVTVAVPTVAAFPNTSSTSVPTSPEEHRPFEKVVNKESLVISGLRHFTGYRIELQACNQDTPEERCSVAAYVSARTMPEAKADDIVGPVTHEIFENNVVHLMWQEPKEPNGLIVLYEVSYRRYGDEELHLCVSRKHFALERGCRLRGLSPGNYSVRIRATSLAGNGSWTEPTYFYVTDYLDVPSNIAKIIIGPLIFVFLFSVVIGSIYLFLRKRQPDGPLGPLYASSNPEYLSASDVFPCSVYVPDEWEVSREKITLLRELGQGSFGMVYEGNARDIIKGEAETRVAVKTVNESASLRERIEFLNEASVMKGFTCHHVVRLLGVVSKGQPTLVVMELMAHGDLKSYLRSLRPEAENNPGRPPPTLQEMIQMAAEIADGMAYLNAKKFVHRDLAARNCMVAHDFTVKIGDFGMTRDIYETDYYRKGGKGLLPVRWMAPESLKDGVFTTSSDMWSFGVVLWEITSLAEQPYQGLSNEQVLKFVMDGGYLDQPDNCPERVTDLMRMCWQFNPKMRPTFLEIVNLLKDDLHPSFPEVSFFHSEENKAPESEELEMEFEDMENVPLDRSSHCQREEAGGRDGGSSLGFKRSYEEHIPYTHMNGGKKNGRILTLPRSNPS

The term IC50 denotes the point on the concentration scale where inhibition reaches its midpoint. Take `O=S(=O)(O)c1cc(O)c(/N=N/c2ccc3ccccc3c2O)c2ccccc12`: in the data set on HIV Tar RNA, the IC50 was 50 µM.
On to `CC(C)(C)c1ccc(-c2cc(C(=O)O)cc(-c3ccc(Cl)c(O)c3)n2)cc1`, for which the values for the IC50 on chymotrypsin (setting [10]) and against AmpC β-lactamase [1] were 13 µM and 4 µM, respectively. Moreover, the “↑ IC50 vs. 10x β-lactamase” value at AmpC β-lactamase [2] (Table 6) is 12-fold. The “↓ IC50 with Incubation” value at AmpC β-lactamase [2] (setting [11]) was >50-fold.
As to `CC(C)c1ccc(/C=C2/C(=O)Nc3ccccc32)cc1` [3-(4-isopropylbenzylidene)indolin-2-one], the “Diameter, 5 mM KPi” value in [3] (DLS in 5 mM KPi) came to 247.1 ± 12.8 nm. Besides, the “Diameter, 500 mM KPi” value in [3] (DLS in 500 mM KPi) was 494.3 ± 48.1 nm. Besides, in data set [3] (setting [12]), the “DLS Diameter” value is given as 379.0 ± 14.1 nm and the “DLS Intensity” value is reported as 43.8 ± 5.7 kcps.
As for `O=c1c(O)c(-c2ccc(O)c(O)c2)oc2cc(O)cc(O)c12` [quercetin], the IC50 in [4] is 3.8 µM; against β-galactosidase (Table 1, 37° C.), 220 µM; at integrase it was 11 µM.
Compound `O=S(=O)(O)Cc1cc2cc(S(=O)(=O)O)c(/N=N/c3ccc(Br)cc3S(=O)(=O)O)c(O)c2c(O)c1/N=N/c1ccc(Br)cc1S(=O)(=O)O` yielded a 50% inhibitory concentration (IC50) against AmpC β-lactamase [1] of 80 µM. In addition, the “↑ IC50 vs. 10x β-lactamase” value at AmpC β-lactamase [2] (Table 6) is recorded as >50-fold. In addition, on AmpC β-lactamase [2] (setting [11]), the “↓ IC50 with Incubation” value was 2-fold.
Consider `O=C(O)c1cc(-c2ccc(Cl)cc2)nc(-c2ccc(Nc3ccc(Cl)cc3)cc2)c1`, for which the IC50 on chymotrypsin (setting [10]) and on AmpC β-lactamase [1] was 2 µM each time. For the same compound, the “↑ IC50 vs. 10x β-lactamase” value at AmpC β-lactamase [2] (Table 6) is reported as 4-fold. For the same compound, the “↓ IC50 with Incubation” value at AmpC β-lactamase [2] (setting [11]) is 12-fold.
In the case of `Oc1ccc(/N=N/c2ccc(Br)cc2)cc1` [drawing 33], the “↑ IC50 in the presence of BSA, against β-galactosidase” value at β-galactosidase was 8 fold.
`O=C(N/N=C/c1ccccc1O)C(=O)N/N=C/c1ccccc1O`: in data set [3] (DLS in 5 mM KPi), the “Diameter, 5 mM KPi” value is on record as 389.3 ± 55.4 nm. Also, the “Diameter, 500 mM KPi” value in data set [3] (DLS in 500 mM KPi) worked out at 426.6 ± 23.8 nm. In addition, in [3] (setting [12]), the “DLS Diameter” value is 394.6 ± 12.5 nm and the “DLS Intensity” value stood at 26.4 ± 5.1 kcps.
Regarding `O=C1C(I)=CC(=C(c2cc(I)c(O)c(I)c2)c2ccccc2C(=O)O)C=C1I` [tetraiodophenolphthalein], in the data set on thymidylate synthase, the 50% inhibitory concentration (IC50) was 3 µM. In data set [3] (50 mM KPi), the “particle formation in solution by DLS (autocorrelation function)” value (“particle formation in solution by DLS” for short) is “presence of particles”. The “Diameter, 5 mM KPi” value in data set [3] (DLS in 5 mM KPi) turned out to be 86.2 ± 10.5 nm. Moreover, the “Diameter, 500 mM KPi” value in data set [3] (DLS in 500 mM KPi) turned out to be 320.4 ± 38.8 nm. In data set [3] (setting [12]), the “DLS Diameter” value was found to be 153.4 ± 26.0 nm and the “DLS Intensity” value is 42.2 ± 3.9 kcps. For the same compound, in data set [3] (same conditions as TEM), the “DLS mean diameter in the TEM conditions” value was 83.2 ± 6.5 nm. In the data set on kinesin, the concentration for half-maximal inhibition (IC50) is 30 µM.
Turning to `O=S(=O)(O)c1cccc2cccc(Nc3ccccc3)c12` [ANS, 8-anili-no-1-naphthalene-sulfonic acid], the “inhibition of the model enzymes” value in data set [5] was “does not inhibit the model enzymes”. Also, in [3], the “DLS Diameter” value was “No particles”; the “DLS Intensity” value came out at 0.5 ± 0.1 kcps; the “Diameter, 5 mM KPi” value is “No particles”; the “Diameter, 50 mM KPi” value is given as “No particles”. Moreover, the “Diameter, 500 mM KPi” value in [3] is given as “No particles”. In data set [6], the “particles observed by TEM” value is given as “Particles were not observed”.
In the case of `Oc1ccc(/N=N/c2ccc(Br)cc2)cc1` [drawing 40], in data set [3] (DLS in 5 mM KPi), the “Diameter, 5 mM KPi” value is listed as 140.2 ± 12.1 nm. In data set [3] (DLS in 500 mM KPi), the “Diameter, 500 mM KPi” value was determined as 267.4 ± 24.5 nm. Besides, in data set [3] (setting [12]), the “DLS Diameter” value worked out at 176.2 ± 7.9 nm and the “DLS Intensity” value came out at 12.6 ± 3.9 kcps.
In the case of tris (dicarboxymethylene) fullerene-C3, the IC50 at chymotrypsin (Table 1, read-out: IC50 Chymotrypsin) was 60 µM; in [7] it was 24 µM; at AmpC β-lactamase [2] (read-out: IC50 β-lactamase, Table 1, 50 mM KPi pH 7.0, 5 min incubation, 1 nM enzyme), 7 µM; in data set [8] it was 17 µM. The “↓ IC50 with Incubation” value at AmpC β-lactamase [2] (setting [13]) was 2-fold. For the same compound, the “↑ IC50 vs. 10x Enzyme” value on AmpC β-lactamase [2] (Table 2) is >50-fold.
A word on the Kd: it is the equilibrium constant for the complex coming apart. Take `O=C1OC2(c3cc(I)c(O)c(I)c3Oc3c2cc(I)c(O)c3I)c2c(Cl)c(Cl)c(Cl)c(Cl)c21` [Rose Bengal lactone]: at insulin receptor, the Kd is 20 µM.
For `O=C1O/C(=C\Nc2ccc(Oc3ccccc3)cc2)c2ccccc21` [drawing 34], the “↑ IC50 in the presence of BSA, against β-galactosidase” value on β-galactosidase is given as 9 fold.
In the case of `O=C1C2C(C(=O)N1Nc1ccc([N+](=O)[O-])cc1[N+](=O)[O-])[C@@]1(Cl)C(Cl)=C(Cl)[C@]2(Cl)C1(Cl)Cl` (stereo partly drawn), in data set [3] (DLS in 5 mM KPi), the “Diameter, 5 mM KPi” value was determined as 143.5 ± 7.9 nm. For the same compound, in data set [3] (setting [12]), the “DLS Diameter” value was 418.6 ± 38.8 nm and the “DLS Intensity” value was 24.9 ± 3.1 kcps.
Turning to `O=C1O/C(=C\Nc2ccc(Oc3ccccc3)cc2)c2ccccc21` [drawing 41], in data set [3] (setting [12]), the “DLS Diameter” value was found to be 94.7 ± 4.2 nm and the “DLS Intensity” value stood at 16.2 ± 1.1 kcps.
At AmpC β-lactamase [1], `O=C1O/C(=C\Nc2ccc(Oc3ccccc3)cc2)c2ccccc21` [drawing 3] gave a concentration for half-maximal inhibition (IC50) of 5 µM.
On to `OB(O)c1cc2ccccc2s1` [Benzo[b]thiophene-2-boronic acid], for which, on AmpC β-lactamase [2] (setting [13]), the “↓ IC50 with Incubation” value is given as “No change”. For the same compound, the “↑ IC50 vs. 10x Enzyme” value at AmpC β-lactamase [2] (Table 2) is “No change”. Further, in data set [3] (50 mM KPi), the “particle formation in solution by DLS” value is “not observed to form particles”. For the same compound, in [3] (DLS in 5 mM KPi), the “Diameter, 5 mM KPi” value is reported as “No particles”. The “Diameter, 50 mM KPi” value in data set [3] (DLS in 50 mM KPi) is “No particles”. Besides, the “Diameter, 500 mM KPi” value in [3] (DLS in 500 mM KPi) is given as “No particles”. For the same compound, in data set [3] (setting [12]), the “DLS Diameter” value is “No particles” and the “DLS Intensity” value was 0.9 ± 0.2 kcps.
In turn, `CCCC[n+]1ccc(-c2cc(C(=O)O)cc(-c3ccc(Cl)cc3)n2)cc1` had an IC50 against AmpC β-lactamase [1] of 8 µM. Besides, the “↑ IC50 vs. 10x β-lactamase” value at AmpC β-lactamase [2] (Table 6) is reported as 20-fold. Also, the “↓ IC50 with Incubation” value on AmpC β-lactamase [2] (setting [11]) is 24-fold.
Regarding `O=C1Nc2cccc(O)c2C1Cc1ccc2c(c1)CCCC2` (stereo not drawn), the half-inhibitory concentration (IC50) amounted to 40 µM on chymotrypsin (setting [10]) and 15 µM at AmpC β-lactamase [1]. The “↑ IC50 vs. 10x β-lactamase” value at AmpC β-lactamase [2] (Table 6) was 6-fold. Also, on AmpC β-lactamase [2] (setting [11]), the “↓ IC50 with Incubation” value is on record as 3-fold.
Turning to `Nc1c(/N=N/c2ccc(-c3ccc(/N=N/c4cc(S(=O)(=O)O)c5ccccc5c4N)cc3)cc2)cc(S(=O)(=O)O)c2ccccc12` [Congo Red], in [5], the “inhibition of the model enzymes” value is “inhibit the model enzymes”. In addition, in data set [9], the 50% inhibitory concentration (IC50) was 30.4 µM. Besides, in data set [3], the “DLS Diameter” value was 202.6 ± 22.5 nm, the “DLS Intensity” value amounted to 131.1 ± 64.3 kcps and the “particle formation in solution by DLS” value was “did form particles detectable by DLS”. In addition, in the data set with prion, the IC50 was 1 µM.

The record behind these values is patent US6887658B2, “Methods of identifying non-specific inhibitors of biomolecules” (Northwestern University, priority 2001, dated 2005).
